Read-outs that look alike come from different tables or passages of the source.
Tested on: murine thymocytes (IL-1β action)
Test: Inhibition of IL-1 action: suppression of IL-1β + PHA stimulated thymocyte proliferation ((3H)-thymidine incorporation)
Assay type: cell-based, mouse (C3H/HeN)
Conditions: IL-1β 0.08 ng/ml + PHA 10 μg/ml
Experimental: The ability of the above compounds to suppress the cell-proliferative effect of IL-1β (O'Gara, 1990) was examined as described in Example 11. Mouse thymocytes in culture were stimulated with IL-1β in the presence of phytohemagglutinin (PHA) and increasing concentrations of triptolide (control) and triptolide derivatives. The cells were cultured for 72 hours, and during the last 18 hours, incubated with tritiated thymidine. DNA synthesis was assessed by measuring incorporation of radiolabeled thymidine. The results expressed in terms of IC50 (concentration effective to cause 50% suppression of proliferation) are shown in Table I.
Inhibition of IL-1 Action on Murine Thymocytes
C3H/HeN mouse thymocytes were prepared and the action of IL-1 together with PHA, which stimulate proliferation of thymocyte, was measured using standard techniques (O'Gara, 1990; Mishell, 1980). Three- to six-week old C3H/HeN male mice (Simonson Laboratory, Gilroy, Calif.) were sacrificed by CO2 inhalation. Thymi were removed, separated from adherent non-thymic tissue, homogenized in Hank's balanced salt solution (HBSS, Gibco) using a glass homogenizer, and centrifuged at 200×g for 10 minutes at 15° C. Following an additional wash in HBSS, the thymocytes were resuspended in RPMI 1640 medium containing 50 uM 2-mercaptoethanol, 2 mM glutamine, 1 mM sodium pyruvate, non-essential amino acids 100 U/ml penicillin, 100 μg/ml streptomycin, and 10% heat-inactivated fetal bovine serum.
Cells were cultured in round-bottom 96 well microtiter tissue culture plates, 6×10^5 cells per well, in a volume of 100 μl. Recombinant human IL-1β(R & D Systems #201-LB) together with Phytohemagglutinin P (PHA, Pharmacia) were added to the cells in volume of 25 μl per well to achieve a final concentration of 0.08 ng/ml and 10 μg/ml, respectively. Samples were dissolved in DMSO (10 mg/ml), then diluted in culture medium. […]
Plates were incubated at 37° C. in a 5% CO2 incubator for 72 hours. […] Cells were then harvested and counted. […]

Work on `CC(C)[C@]12O[C@H]1[C@@H]1O[C@]13[C@]1(O[C@H]1C[C@H]1C4=C(CC[C@@]13C)C(=O)OC4)[C@@H]2O` [Triptolide, triptolide] yielded an IC50 (72 hours, read-out: IC50, IL-1 assay) of roughly 5 nM, an IC50 (Mus musculus, Thymocyte, 72 h, read-out: IC50 (concentration effective to cause 50% suppression of proliferation), IL-1 assay) of 1.9 ng/mL and an IC50 (Mus musculus, Thymocyte, 72 h, read-out: IC50, IL-1 assay) of 5.3 nM.
